Results: patent publication US8057800B2, “Immunointeractive molecules and uses thereof” (Circassia Limited, priority 2004, dated 2011)

Key:
[1] = test system: peanut specific TCL generated using CPE; assay: CPE driven peanut specific TCL proliferation assay (3H-thymidine); format: cell-based, human; conditions: for responders with a proliferative response to the peptide / proliferative response: CPE driven TCL; for responders with a proliferative response to the peptide: 8 responders; for proliferative response: peptide 10 μg/ml, stimulation index ≧2.5; for subjects responding to the peptide who also had a proliferative response to Ara h 2: subjects with a response to Ara h 2 (19-38) and Ara h 2 (28-47)
Experimental: FIG. 4 is a graphical representation of peanut allergic donor peanut specific TCL proliferative responses to Ara h 2 peptides, Ara h 2 and crude peanut extract. Peanut specific TCL (5×10^4 cells/ml) from individuals with peanut allergy generated using CPE were stimulated with Ara h 2 peptides at a concentration of 10 μg/ml in the presence of autologous irradiated PBMC as APC (5×10^4 cells/ml) in 3 day cultures.
(§1) Freshly harvested or frozen stored PBMC were cultured in 24-well plates (Greiner Biotechnik, Germany) at 2.5×10^6 cells per well (2 ml volume) in complete medium with antigen at an optimised concentration for 7 days at 37° C. in a 5% CO2 humidified incubator. In the case of frozen PBMC the cells were first washed once in wash medium, 1 in 10 dilution of PBMC to medium, and pelleted at 329×g for 10 minutes to remove DMSO. At day 7 cells were washed once and resuspended at 1 to 1.5×10^6/ml and added together with 1×10^6/ml washed irradiated (3000 rads; Gammacell 1000 Elite, Nordion International, Inc.) autologous PBMC (from liquid nitrogen stocks) and antigen into fresh 24-well plates. At day 2 following restimulation, 25 U/ml of recombinant human interleukin-2 (rIL-2) was added and at day 4, 1 ml of culture medium was removed and replaced with fresh medium and 25 U/ml rIL-2. For some experiments due to low cell numbers at 2 weeks, 3 week TCLs were generated by restimulation with antigen and rIL-2 as above for a further week. In all experiments T cells were rested for 6 to 7 days after the last addition of antigen and APC.
5.0×10^4/well TCL cells were cultured in triplicate in 96-well U bottom plates (Linbro ICN Biomedicals, USA) with antigen or medium alone and rIL-2 as negative and positive controls respectively, in the presence of autologous irradiated (3000 rads) PBMC (5.0×10^4/well). Cultures were incubated for 3 days. In the last 16 hours of culture, wells were pulsed with ^3H-thymidine (1 μCi/well), then harvested onto printed glass fibre filters with a 96-well automatic cell harvester. ^3H-thymidine incorporation was measured by liquid scintillation spectroscopy.
To determine the T cell epitopes of Ara h 2, oligoclonal CPE-specific TCL were generated from PBMC of 21 peanut-allergic donors and 5 non-peanut allergic donors, and stimulated with a nested set of synthetic peptides spanning the entire Ara h 2 sequence (FIG. 1). A peptide concentration of 10 μg/ml was determined to be the optimal stimulating concentration within proliferation assays. Optimisation included assays at both 10 μg/ml and 30 μg/ml. […] In this setting, and because of the limited availability of donor cells and the cost of commercially prepared peptides, the lower concentration was used.
Several approaches to the production of TCL were used, including stimulation of cells with two and three pulses of CPE separated by 7 days each, two pulses of CPE with a third pulse of rAra h 2, again separated by 7 days each, and three stimulations with rAra h 2. Responses by TCL receiving two CPE stimulations were in general lower than those receiving three stimulations, such that it was felt the sensitivity of the assay may be compromised. […] This lead to the use of TCL stimulated with 3 pulses of CPE, each separated by 7 days for all subjects tested.

[2] = test system: peanut specific TCL generated using CPE and rAra h 2; assay: rAra h 2 pulsed peanut specific TCL proliferation assay (3H-thymidine); format: cell-based, human
Experimental: FIG. 5 is a graphical representation of peanut allergic donor peanut specific Ara h 2 pulsed TCL proliferative responses Ara h 2 peptides, Ara h 2 and crude peanut extract. Peanut specific TCL (5×10^4 cells/ml) from individuals with peanut allergy were generated using CPE and rAra h 2, then stimulated with Ara h 2 peptides at a concentration of […] in the presence of autologous irradiated PBMC as APC (5×10^4 cells/ml) in 3 day cultures.
as §1
5.0×10^4/well TCL cells were cultured in triplicate in 96-well U bottom plates (Linbro ICN Biomedicals, USA) with antigen or medium alone and rIL-2 as negative and positive controls respectively, in the presence of autologous irradiated (3000 rads) PBMC (5.0×10^4/well). […] In the last 16 hours of culture, wells were pulsed with ^3H-thymidine (1 μCi/well), then harvested onto printed glass fibre filters with a 96-well automatic cell harvester. ^3H-thymidine incorporation was measured by liquid scintillation spectroscopy. […]

[3] = test system: peanut specific TCL generated using CPE; assay: Cytokine ELISA (IL-5, IFN-γ) of CPE driven TCL supernatants; format: cell-based, human; conditions: for IL-5 production: 48 hours
Experimental: FIG. 7 is a graphical representation of peanut allergic donor peanut specific Ara h 2 pulsed TCL cytokine responses to Ara h 2 peptides, Ara h 2 and crude peanut extract. Peanut specific TCLs (5×10^4/ml) from individuals with peanut allergy were generated using CPE, then stimulated with Ara h 2 peptides at a concentration of 10 ug/ml in the presence of autologous irradiated PBMC as APC (5×10^4/ml) in 3 day cultures. Cytokine supernatants were collected after 48 hours culture and assayed by specific ELISA. […] Peptides associated with a significant proliferative response are shaded grey.
Supernatants (70-75 μl/well of triplicate cultures) were harvested and pooled from T cell proliferation assay cultures at 48 hours (IL-5, IFN-γ) and frozen at −80° C. Harvested supernatants were replaced with warm (37° C.) complete medium and cells subsequently pulsed and harvested as described previously.
IL-5 and IFN-γ levels in culture supernatants were measured by sandwich ELISA. White Costar (Corning, USA) ELISA plates were coated with capture mAb (IL-5 and IFN-γ, 2 μg/ml; 30 μl/well) diluted in binding buffer overnight at 4° C. Plates were then washed three times in PBS/0.05% Tween (wash buffer) and wells blocked with 100 μl/well of 1% BSA/PBS (blocking buffer) for 1 hour at room temperature. Following three washes in wash buffer, 30 μl/well of serial dilutions of recombinant human IL-5 or IFN-γ (5000-0.15 pg/ml) in blocking buffer-0.05% Tween or culture supernatants were added and incubated overnight at 4° C. Following four washes in wash buffer, plates were incubated with biotinylated detection mAb (IL-5, 1 μg/ml; IFN-γ, 0.5 μg/ml; 50 μl/well) diluted in blocking buffer for 1 hour at room temperature. Plates were then washed 6 times in wash buffer and incubated with a 1 in 2000 dilution of streptavidin-peroxidase (50 μl/well) in blocking buffer for 45 minutes at room temperature. Following 8 washes in wash buffer, 100 μl/well of freshly prepared chemiluminescent substrate (Perkin-Elmer, USA) was used and plates read in a Lumicount microplate glow luminometer (Packard Instrument Company, USA), 0.5 seconds/well, automatic sensitivity setting. Standard curve construction and determination of unknown cytokine levels was performed using Packard Instruments software. IL-5 and IFN-γ ELISA sensitivities were 2 pg/ml and 4 pg/ml, respectively.
To identify the phenotype of T cells associated with a peptide proliferative response, supernatants were collected from TCL cultures 48 hours after stimulation with peptides and assayed for the presence of IL-5 and IFN-γ. For each donor, peptides associated with a proliferative response and two peptides not associated with a proliferative response were tested. […] In general, cytokine responses were at the lower limits of detection. […]

serum IgE = assay: Western blot of CPE for serum IgE reactivity to Ara h 2; format: binding, human; conditions: western blotting of CPE
Source text: Following resolution of CPE on a 14% polyacrylamide gel, proteins were transferred to nitrocellulose and probed with sera from the study population, and non-peanut allergic controls. IgE was detected using HRP conjugated mouse anti-human IgE and enhanced chemiluminescence.
SDS-PAGE gels were assembled into stacks in transfer buffer as follows: blotting paper, nitrocellulose membrane, gel and blotting paper. Sample proteins and pre-stained molecular weight markers were electrophoretically transferred from SDS-PAGE gels to nitrocellulose at 30 volts for 3 hours in an Xcell II blot module (Novex, USA). Following transfer, the nitrocellulose membrane was stained with Ponceau S to ensure adequate protein transfer, then cut into strips and blocked by incubation with 10% milk powder-PBS for 1 hour at room temperature. The blocked nitrocellulose membrane was then washed in PBS and incubated with sample sera diluted 1 in 5 with 1% milk powder-PBS-Tween for all proteins except for Ara h 1, whereupon a 1 in 10 serum dilution was used. Incubation took place overnight, following which the blot was washed 3 times in PBS-Tween, 5 minutes/wash. […] The nitrocellulose was then photographed and analysed using Labworks image acquisition software (UVP Laboratory Products, UK). […]

specific IgE = conditions: cited from earlier work

PYDRRGAGSSQHQERCCNEL (Peanut Ara h 2) [Ara h 2 (73-92), Ara h 2 20-mer peptide, residues 73-92]
responders with a proliferative response to the peptide [1]: 3 of the 8
pattern of reactivity of subject 6 ([2]; subject 6, rAra h 2 pulsed TCL): did not include

RCMCEALQQIMENQSDRLQG (Peanut Ara h 2) [Ara h 2 (100-119), Ara h 2 20-mer peptide, residues 100-119]
proliferative response [1]: inducing proliferative responses

RQQWELQGDRRCQSQLERAN (Peanut Ara h 2) [Ara h 2 (19-38), Ara h 2 20-mer peptide, residues 19-38]
responders with a proliferative response to the peptide [1]: 3 of the 8
subjects demonstrating their greatest response to this peptide ([1]; response magnitude ranked for each subject): 3
subjects responding to the peptide who also had a proliferative response to Ara h 2 [1]: 60%
reactivity of subject 10 ([2]; subject 10, both types of TCL preparation): reacted
magnitude of response relative to other peptides ([2]; subject 10, rAra h 2 pulsed TCL): less than that generated by stimulation with Ara h 2 (37-56) and Ara h 2 (46-65)
IL-5/IFN-γ ratio ([3]; subject 10, CPE driven TCL): ~7
IL-5 production ([3]; subject 10, CPE driven TCL): 540 pg/mL
IL-5/IFN-γ ratio ([3]; subject 21, CPE driven TCL): approximately 20
IL-5 production ([3]; subject 21, CPE driven TCL): 2054 pg/mL

RRCQSQLERANLRPCEQHLM (Peanut Ara h 2) [Ara h 2 (28-47), Ara h 2 20-mer peptide, residues 28-47]
proliferative response [1]: inducing proliferative responses
subjects responding to the peptide who also had a proliferative response to Ara h 2 [1]: 60%

B1: Ara h 2: major peanut allergen, a glycoprotein of the conglutin seed storage family (protein)
chain: LTILVALALFLLAAHASARQQWELQGDRRCQSQLERANLRPCEQHLMQKIQRDEDSYERDPYSPSQDPYSPSPYDRRGAGSSQHQERCCNELNEFENNQRCMCEALQQIMENQSDRLQGRQQEQQFKRELRNLPQQCGLRAPQRCDLDVESGGRDRY
modifications: Peanut Ara h 2
notes: major peanut allergen, a glycoprotein of the conglutin seed storage family
peanut allergic subjects possessing IgE reactive to Ara h 2 doublet (serum IgE; 22 peanut allergic subjects): 20 out of the 22
IgE binding to Ara h 2 in non-peanut allergic controls (serum IgE; non-peanut allergic controls): weak and potentially non-specific
sera reactive with Ara h 2 (specific IgE; Burks et al, 1992): 6 out of 6
subjects with specific IgE to purified natural Ara h 2 (specific IgE; de Jong et al. 1998): approximately 78%
subjects possessing specific IgE to Ara h 2 (specific IgE; western blotting of crude peanut extract, Clarke et al. 1998): 71%
subjects possessing IgE towards the recombinant form (specific IgE; western blotting, Kleber-Janke et al. 1999): 85%
